Experimental data reported in ChEMBL document CHEMBL4507274 (2021).

Legend:
[1] = system: Tyrosine-protein kinase ABL1 (Homo sapiens), P00519 [E255K]; conditions: Compound concentration 100.0 nM
[2] = molecular target: Bone morphogenetic protein receptor type-1B (Homo sapiens) (UniProt O00238); conditions: Compound concentration 100.0 nM
[3] = molecular target: Bone morphogenetic protein receptor type-2 (Homo sapiens) (UniProt Q13873); conditions: Compound concentration 100.0 nM
[4] = system: Serine/threonine-protein kinase B-raf (Homo sapiens), P15056 [V600E]; conditions: Compound concentration 100.0 nM
[5] = molecular target: Serine/threonine-protein kinase BRSK2 (Homo sapiens) (UniProt Q8IWQ3); conditions: Compound concentration 100.0 nM
[6] = molecular target: Calcium/calmodulin-dependent protein kinase type II subunit alpha (Homo sapiens) (UniProt Q9UQM7); conditions: Compound concentration 100.0 nM
[7] = molecular target: Calcium/calmodulin-dependent protein kinase kinase 1 (Homo sapiens) (UniProt Q8N5S9); conditions: Compound concentration 100.0 nM
[8] = molecular target: Cyclin-dependent kinase 5 (Homo sapiens) (UniProt Q00535); conditions: Compound concentration 100.0 nM
[9] = molecular target: Cyclin-dependent kinase-like 2 (Homo sapiens) (UniProt Q92772); conditions: Compound concentration 100.0 nM
[10] = molecular target: Macrophage colony-stimulating factor 1 receptor (Homo sapiens) (UniProt P07333); conditions: Compound concentration 100.0 nM
[11] = molecular target: Serine/threonine-protein kinase 17B (Homo sapiens) (UniProt O94768); conditions: Compound concentration 100.0 nM
[12] = molecular target: Ephrin type-A receptor 5 (Homo sapiens) (UniProt P54756); conditions: Compound concentration 100.0 nM
[13] = molecular target: Tyrosine-protein kinase Fer (Homo sapiens) (UniProt P16591); conditions: Compound concentration 100.0 nM
[14] = system: Receptor-type tyrosine-protein kinase FLT3 (Homo sapiens), P36888 [UNDEFINED MUTATION]; conditions: Compound concentration 100.0 nM
[15] = molecular target: Tyrosine-protein kinase FRK (Homo sapiens) (UniProt P42685); conditions: Compound concentration 100.0 nM
[16] = molecular target: Cyclin-G-associated kinase (Homo sapiens) (UniProt O14976); conditions: Compound concentration 100.0 nM
[17] = molecular target: Homeodomain-interacting protein kinase 4 (Homo sapiens) (UniProt Q8NE63); conditions: Compound concentration 100.0 nM
[18] = molecular target: Mast/stem cell growth factor receptor Kit (Homo sapiens) (UniProt P10721); conditions: Compound concentration 100.0 nM
[19] = system: Mast/stem cell growth factor receptor Kit (Homo sapiens), P10721 [L576P]; conditions: Compound concentration 100.0 nM
[20] = molecular target: Tyrosine-protein kinase Lck (Homo sapiens) (UniProt P06239); conditions: Compound concentration 100.0 nM
[21] = molecular target: Mitogen-activated protein kinase kinase kinase 13 (Homo sapiens) (UniProt O43283); conditions: Compound concentration 100.0 nM
[22] = molecular target: Myosin light chain kinase family member 4 (Homo sapiens) (UniProt Q86YV6); conditions: Compound concentration 100.0 nM
[23] = molecular target: Myosin-IIIb (Homo sapiens) (UniProt Q8WXR4); conditions: Compound concentration 100.0 nM
[24] = molecular target: T1, Serine/threonine-protein kinase Nek2 (Homo sapiens) (UniProt P51955); conditions: Compound concentration 100.0 nM
T1 sequence (whole entry): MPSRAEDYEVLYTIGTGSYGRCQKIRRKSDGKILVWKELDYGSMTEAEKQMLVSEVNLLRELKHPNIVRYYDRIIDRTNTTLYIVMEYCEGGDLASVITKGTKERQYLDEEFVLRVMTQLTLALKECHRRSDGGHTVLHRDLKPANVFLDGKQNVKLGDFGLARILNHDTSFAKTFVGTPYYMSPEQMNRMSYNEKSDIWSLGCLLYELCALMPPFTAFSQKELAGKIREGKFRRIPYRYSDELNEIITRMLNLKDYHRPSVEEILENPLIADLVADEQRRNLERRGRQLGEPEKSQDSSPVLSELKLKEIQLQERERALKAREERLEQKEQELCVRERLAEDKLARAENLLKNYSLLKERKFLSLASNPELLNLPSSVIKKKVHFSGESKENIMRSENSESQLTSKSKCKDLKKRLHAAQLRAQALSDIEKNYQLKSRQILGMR

[25] = molecular target: Serine/threonine-protein kinase PAK 1 (Homo sapiens) (UniProt Q13153); conditions: Compound concentration 100.0 nM
[26] = molecular target: Cyclin-dependent kinase 2 homolog (Plasmodium falciparum (isolate 3D7)) (UniProt P61075); conditions: Compound concentration 100.0 nM
[27] = system: Phosphatidylinositol 4,5-bisphosphate 3-kinase catalytic subunit alpha isoform (Homo sapiens), P42336 [Q546K]; conditions: Compound concentration 100.0 nM
[28] = molecular target: Receptor-interacting serine/threonine-protein kinase 1 (Homo sapiens) (UniProt Q13546); conditions: Compound concentration 100.0 nM
[29] = molecular target: Ribosomal protein S6 kinase alpha-5 (Homo sapiens) (UniProt O75582); conditions: Compound concentration 100.0 nM
[30] = molecular target: SRSF protein kinase 1 (Homo sapiens) (UniProt Q96SB4); conditions: Compound concentration 100.0 nM
[31] = molecular target: Serine/threonine-protein kinase 33 (Homo sapiens) (UniProt Q9BYT3); conditions: Compound concentration 100.0 nM
[32] = molecular target: Dual specificity testis-specific protein kinase 1 (Homo sapiens) (UniProt Q15569); conditions: Compound concentration 100.0 nM
[33] = molecular target: Tyrosine-protein kinase receptor Tie-1 (Homo sapiens) (UniProt P35590); conditions: Compound concentration 100.0 nM
[34] = molecular target: Testis-specific serine/threonine-protein kinase 1 (Homo sapiens) (UniProt Q9BXA7); conditions: Compound concentration 100.0 nM
[35] = molecular target: Testis-specific serine/threonine-protein kinase 3 (Homo sapiens) (UniProt Q96PN8); conditions: Compound concentration 100.0 nM
[36] = molecular target: Serine/threonine-protein kinase WNK1 (Homo sapiens) (UniProt Q9H4A3); conditions: Compound concentration 100.0 nM
[37] = molecular target: Serine/threonine-protein kinase 32B (Homo sapiens) (UniProt Q9NY57); conditions: Compound concentration 100.0 nM
[38] = molecular target: 5-hydroxytryptamine receptor 2C (Homo sapiens) (UniProt P28335); conditions: Compound concentration 10.0 uM
[39] = molecular target: Muscarinic acetylcholine receptor M5 (Homo sapiens) (UniProt P08912); conditions: Compound concentration 10.0 uM

Chain of Ribosomal protein S6 kinase alpha-5 (Homo sapiens) (O75582 whole entry, looked up): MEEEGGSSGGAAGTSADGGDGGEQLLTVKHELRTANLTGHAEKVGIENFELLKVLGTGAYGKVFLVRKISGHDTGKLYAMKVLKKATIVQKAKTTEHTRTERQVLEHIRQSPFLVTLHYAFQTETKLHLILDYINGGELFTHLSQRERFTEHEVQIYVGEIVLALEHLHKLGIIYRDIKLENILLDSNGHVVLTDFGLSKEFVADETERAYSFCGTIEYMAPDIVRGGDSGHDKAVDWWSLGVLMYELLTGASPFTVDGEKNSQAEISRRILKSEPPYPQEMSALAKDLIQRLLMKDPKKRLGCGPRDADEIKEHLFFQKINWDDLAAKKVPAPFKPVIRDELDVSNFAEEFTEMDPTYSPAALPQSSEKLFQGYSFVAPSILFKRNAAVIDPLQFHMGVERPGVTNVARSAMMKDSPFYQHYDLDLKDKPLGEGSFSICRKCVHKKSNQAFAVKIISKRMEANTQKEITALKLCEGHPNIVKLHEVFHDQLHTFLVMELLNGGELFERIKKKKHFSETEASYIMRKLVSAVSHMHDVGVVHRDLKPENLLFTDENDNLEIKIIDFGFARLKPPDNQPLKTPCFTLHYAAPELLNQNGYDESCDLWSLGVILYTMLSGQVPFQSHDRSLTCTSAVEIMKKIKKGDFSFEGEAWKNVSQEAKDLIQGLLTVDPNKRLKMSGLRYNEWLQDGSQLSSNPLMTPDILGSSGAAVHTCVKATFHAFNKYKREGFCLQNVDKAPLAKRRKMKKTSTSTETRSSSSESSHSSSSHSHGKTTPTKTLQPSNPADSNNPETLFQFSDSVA
Chain of Testis-specific serine/threonine-protein kinase 3 (Homo sapiens) (Q96PN8 whole entry): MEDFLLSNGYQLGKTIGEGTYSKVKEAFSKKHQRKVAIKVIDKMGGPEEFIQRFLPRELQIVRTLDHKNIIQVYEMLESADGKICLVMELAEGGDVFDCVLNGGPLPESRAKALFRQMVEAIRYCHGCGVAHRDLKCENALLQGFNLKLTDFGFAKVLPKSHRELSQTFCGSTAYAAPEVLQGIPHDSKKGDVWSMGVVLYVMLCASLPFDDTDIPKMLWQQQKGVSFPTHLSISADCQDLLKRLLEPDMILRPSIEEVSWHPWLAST
Chain of Receptor-interacting serine/threonine-protein kinase 1 (Homo sapiens) (Q13546 whole entry): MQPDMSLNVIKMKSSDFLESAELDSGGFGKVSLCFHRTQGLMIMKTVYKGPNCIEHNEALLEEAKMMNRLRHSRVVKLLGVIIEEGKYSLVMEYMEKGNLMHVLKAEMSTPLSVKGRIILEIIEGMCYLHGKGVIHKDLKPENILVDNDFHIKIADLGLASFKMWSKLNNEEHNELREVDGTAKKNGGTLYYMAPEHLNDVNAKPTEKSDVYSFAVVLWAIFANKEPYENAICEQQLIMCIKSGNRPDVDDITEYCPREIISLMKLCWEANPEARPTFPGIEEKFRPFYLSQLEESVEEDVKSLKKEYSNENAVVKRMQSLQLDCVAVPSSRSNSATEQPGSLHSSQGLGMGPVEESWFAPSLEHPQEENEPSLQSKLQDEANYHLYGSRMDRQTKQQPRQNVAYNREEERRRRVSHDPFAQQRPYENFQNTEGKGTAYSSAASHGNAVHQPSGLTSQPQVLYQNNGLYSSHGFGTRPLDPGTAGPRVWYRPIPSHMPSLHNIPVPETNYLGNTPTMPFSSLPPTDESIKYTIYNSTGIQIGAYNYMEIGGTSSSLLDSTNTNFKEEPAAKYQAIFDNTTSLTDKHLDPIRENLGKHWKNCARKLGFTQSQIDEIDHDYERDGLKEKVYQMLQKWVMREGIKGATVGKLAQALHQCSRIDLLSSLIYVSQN
Chain of Testis-specific serine/threonine-protein kinase 1 (Homo sapiens) (Q9BXA7 whole entry): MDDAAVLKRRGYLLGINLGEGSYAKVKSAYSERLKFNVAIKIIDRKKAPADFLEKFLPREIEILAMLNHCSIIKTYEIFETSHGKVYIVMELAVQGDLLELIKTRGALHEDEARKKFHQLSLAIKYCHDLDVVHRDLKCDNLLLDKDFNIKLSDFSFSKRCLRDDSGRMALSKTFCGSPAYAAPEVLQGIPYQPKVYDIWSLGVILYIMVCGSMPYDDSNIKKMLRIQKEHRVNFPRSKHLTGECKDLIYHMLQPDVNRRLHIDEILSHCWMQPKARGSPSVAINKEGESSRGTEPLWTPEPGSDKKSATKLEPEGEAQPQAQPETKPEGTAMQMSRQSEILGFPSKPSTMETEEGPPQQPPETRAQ
Chain of Myosin light chain kinase family member 4 (Homo sapiens) (Q86YV6 whole entry): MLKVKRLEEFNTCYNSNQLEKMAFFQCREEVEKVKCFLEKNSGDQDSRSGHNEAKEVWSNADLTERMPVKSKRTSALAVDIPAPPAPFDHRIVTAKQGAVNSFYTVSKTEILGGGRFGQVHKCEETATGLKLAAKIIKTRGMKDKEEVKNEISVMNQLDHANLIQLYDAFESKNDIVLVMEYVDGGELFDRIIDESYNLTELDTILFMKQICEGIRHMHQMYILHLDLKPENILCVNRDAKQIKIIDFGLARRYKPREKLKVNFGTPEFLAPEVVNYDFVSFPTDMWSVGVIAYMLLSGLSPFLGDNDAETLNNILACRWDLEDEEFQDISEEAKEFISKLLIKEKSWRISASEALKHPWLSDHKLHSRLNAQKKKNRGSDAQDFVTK
Chain of Calcium/calmodulin-dependent protein kinase kinase 1 (Homo sapiens) (Q8N5S9 whole entry, looked up): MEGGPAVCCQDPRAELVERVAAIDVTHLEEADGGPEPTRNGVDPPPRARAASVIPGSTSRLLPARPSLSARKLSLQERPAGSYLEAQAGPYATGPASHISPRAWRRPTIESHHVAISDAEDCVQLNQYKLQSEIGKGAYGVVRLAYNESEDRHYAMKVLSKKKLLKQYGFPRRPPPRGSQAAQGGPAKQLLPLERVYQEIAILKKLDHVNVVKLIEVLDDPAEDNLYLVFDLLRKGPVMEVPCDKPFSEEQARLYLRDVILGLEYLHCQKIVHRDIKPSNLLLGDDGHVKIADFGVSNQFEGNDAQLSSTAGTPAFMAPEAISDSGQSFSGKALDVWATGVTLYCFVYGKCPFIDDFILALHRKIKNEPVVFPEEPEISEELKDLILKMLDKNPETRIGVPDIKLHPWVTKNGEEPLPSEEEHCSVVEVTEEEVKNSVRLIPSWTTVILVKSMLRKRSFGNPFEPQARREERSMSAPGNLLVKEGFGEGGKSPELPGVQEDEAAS
Chain of Mast/stem cell growth factor receptor Kit (Homo sapiens), P10721 [L576P] (P10721 whole entry L576P): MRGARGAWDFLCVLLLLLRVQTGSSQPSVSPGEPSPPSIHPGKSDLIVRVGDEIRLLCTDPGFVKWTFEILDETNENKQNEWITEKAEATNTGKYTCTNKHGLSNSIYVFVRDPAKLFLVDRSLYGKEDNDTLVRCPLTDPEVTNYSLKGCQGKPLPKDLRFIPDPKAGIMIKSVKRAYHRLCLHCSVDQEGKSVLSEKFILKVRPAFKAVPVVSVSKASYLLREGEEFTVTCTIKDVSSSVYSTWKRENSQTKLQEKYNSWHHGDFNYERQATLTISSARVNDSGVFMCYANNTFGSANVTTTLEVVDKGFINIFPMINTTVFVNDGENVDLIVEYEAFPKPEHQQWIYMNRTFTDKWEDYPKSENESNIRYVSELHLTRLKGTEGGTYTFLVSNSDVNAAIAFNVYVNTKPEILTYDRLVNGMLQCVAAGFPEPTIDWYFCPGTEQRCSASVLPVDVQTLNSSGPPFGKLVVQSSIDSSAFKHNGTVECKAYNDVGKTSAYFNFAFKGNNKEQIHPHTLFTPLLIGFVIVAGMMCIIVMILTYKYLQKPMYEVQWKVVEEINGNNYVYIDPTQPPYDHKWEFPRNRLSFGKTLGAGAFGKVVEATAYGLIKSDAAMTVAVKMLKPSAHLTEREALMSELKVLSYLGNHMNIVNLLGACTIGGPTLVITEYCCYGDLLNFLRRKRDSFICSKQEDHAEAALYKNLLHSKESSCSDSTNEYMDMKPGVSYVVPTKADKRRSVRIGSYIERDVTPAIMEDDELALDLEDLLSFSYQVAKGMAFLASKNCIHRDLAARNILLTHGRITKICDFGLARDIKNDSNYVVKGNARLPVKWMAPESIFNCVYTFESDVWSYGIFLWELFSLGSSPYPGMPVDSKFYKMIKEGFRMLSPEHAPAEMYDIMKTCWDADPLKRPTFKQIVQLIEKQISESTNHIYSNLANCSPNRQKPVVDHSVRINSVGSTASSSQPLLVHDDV
Chain of Homeodomain-interacting protein kinase 4 (Homo sapiens) (Q8NE63 whole entry): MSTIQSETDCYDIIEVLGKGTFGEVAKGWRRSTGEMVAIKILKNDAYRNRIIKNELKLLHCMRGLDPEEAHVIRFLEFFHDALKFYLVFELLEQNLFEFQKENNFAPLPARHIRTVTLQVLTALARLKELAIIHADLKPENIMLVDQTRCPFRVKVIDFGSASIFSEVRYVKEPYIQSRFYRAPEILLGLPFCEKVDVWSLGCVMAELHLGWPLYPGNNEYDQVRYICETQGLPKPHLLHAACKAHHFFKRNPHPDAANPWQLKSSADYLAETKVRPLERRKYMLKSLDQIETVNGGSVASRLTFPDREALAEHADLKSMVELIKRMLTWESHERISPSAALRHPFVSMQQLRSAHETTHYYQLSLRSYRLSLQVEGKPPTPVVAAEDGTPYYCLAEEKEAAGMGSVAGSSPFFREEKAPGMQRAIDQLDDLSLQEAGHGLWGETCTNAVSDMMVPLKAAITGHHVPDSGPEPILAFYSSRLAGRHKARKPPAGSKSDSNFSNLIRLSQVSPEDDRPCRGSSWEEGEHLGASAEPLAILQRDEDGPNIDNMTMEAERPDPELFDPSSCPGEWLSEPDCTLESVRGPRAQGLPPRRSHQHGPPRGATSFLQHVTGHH
Chain of Cyclin-dependent kinase 2 homolog (Plasmodium falciparum (isolate 3D7)) (P61075 whole entry, canonical isoform): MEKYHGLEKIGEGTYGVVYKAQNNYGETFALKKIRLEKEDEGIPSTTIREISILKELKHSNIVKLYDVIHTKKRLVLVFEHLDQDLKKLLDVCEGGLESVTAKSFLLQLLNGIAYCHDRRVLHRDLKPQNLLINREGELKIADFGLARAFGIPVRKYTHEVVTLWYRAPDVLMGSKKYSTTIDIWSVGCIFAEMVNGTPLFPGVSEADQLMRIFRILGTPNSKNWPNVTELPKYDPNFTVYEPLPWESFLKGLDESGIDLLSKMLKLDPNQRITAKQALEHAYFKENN

Cc1c[nH]c2nccc(Oc3c(F)cc(Nc4cc(Cl)nc(N)n4)cc3F)c12 [BAY-549]
inactive: residual activity [1] 100% | residual activity [2] 68% | residual activity [3] 95% | residual activity [4] 98% | residual activity [5] 92% | residual activity [6] 70% | residual activity [7] 99% | residual activity [8] 94% | residual activity [9] 93% | residual activity [10] 100% | residual activity [11] 100% | residual activity [12] 92% | residual activity [13] 100% | residual activity [14] 97% | residual activity [15] 100% | residual activity [16] 100% | residual activity [17] 100% | residual activity [18] 75% | residual activity [19] 72% | residual activity [20] 100% | residual activity [21] 81% | residual activity [22] 100% | residual activity [23] 91% | residual activity [24] 97% | residual activity [25] 100% | residual activity [26] 72% | residual activity [27] 76% | residual activity [28] 100% | residual activity [29] 93% | residual activity [30] 100% | residual activity [31] 85% | residual activity [32] 100% | residual activity [33] 94% | residual activity [34] 95% | residual activity [35] 100% | residual activity [36] 90% | residual activity [37] 71% | inhibition [38] 22.1% | inhibition [39] -3.6%

Cn1cc(Cl)c2c(Oc3c(F)cc(Nc4cc(Cl)nc(N)n4)cc3F)ccnc21 [BAY-4900]
inactive: residual activity [1] 100% | residual activity [2] 86% | residual activity [3] 100% | residual activity [4] 100% | residual activity [5] 100% | residual activity [6] 82% | residual activity [7] 100% | residual activity [8] 100% | residual activity [9] 100% | residual activity [10] 89% | residual activity [11] 84% | residual activity [12] 100% | residual activity [13] 100% | residual activity [14] 100% | residual activity [15] 81% | residual activity [16] 100% | residual activity [17] 100% | residual activity [18] 95% | residual activity [19] 100% | residual activity [20] 100% | residual activity [21] 99% | residual activity [22] 91% | residual activity [23] 57% | residual activity [24] 100% | residual activity [25] 100% | residual activity [26] 68% | residual activity [27] 76% | residual activity [28] 100% | residual activity [29] 100% | residual activity [30] 85% | residual activity [31] 100% | residual activity [32] 100% | residual activity [33] 100% | residual activity [34] 100% | residual activity [35] 100% | residual activity [36] 98% | residual activity [37] 99% | inhibition [38] 2.72% | inhibition [39] 3.3%
